# What was measured:
# Homo sapiens = organism: Homo sapiens; assay: Selectivity ratio of IC50 for human recombinant MAO-A to IC50 for human recombinant MAO-B
# [1] = Chemical stability of the compound in PBS assessed as compound remaining at pH 7.4 after 180 mins; type: physicochemical; conditions: read-out: Stability
# [2] = target: T1, Amine oxidase [flavin-containing] B (Homo sapiens, UniProt P27338); assay: Inhibition of human recombinant MAO-B expressed in insect cells assessed as kynuramine hydrobromide oxidation after 20 mins by spectrophotometric analysis; type: cell-based
# T1 sequence (P27338 whole entry): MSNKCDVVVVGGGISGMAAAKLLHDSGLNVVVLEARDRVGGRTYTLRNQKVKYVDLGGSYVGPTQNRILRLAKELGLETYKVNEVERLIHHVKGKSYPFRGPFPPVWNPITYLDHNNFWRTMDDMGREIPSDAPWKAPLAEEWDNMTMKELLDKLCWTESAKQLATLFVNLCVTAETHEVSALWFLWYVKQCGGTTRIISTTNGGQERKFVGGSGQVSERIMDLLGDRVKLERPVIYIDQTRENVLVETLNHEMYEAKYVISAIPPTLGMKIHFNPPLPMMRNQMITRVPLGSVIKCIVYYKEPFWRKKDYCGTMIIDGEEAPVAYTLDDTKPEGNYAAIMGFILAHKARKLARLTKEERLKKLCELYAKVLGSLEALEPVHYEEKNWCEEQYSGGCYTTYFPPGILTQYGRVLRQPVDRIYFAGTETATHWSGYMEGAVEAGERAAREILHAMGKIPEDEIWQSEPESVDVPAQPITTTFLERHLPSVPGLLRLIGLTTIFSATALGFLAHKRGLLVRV
# [3] = target: T2, Amine oxidase [flavin-containing] A (Homo sapiens, UniProt P21397); assay: Inhibition of human recombinant MAO-A expressed in insect cells assessed as kynuramine hydrobromide oxidation after 20 mins by spectrophotometric analysis
# T2 sequence (P21397 whole entry): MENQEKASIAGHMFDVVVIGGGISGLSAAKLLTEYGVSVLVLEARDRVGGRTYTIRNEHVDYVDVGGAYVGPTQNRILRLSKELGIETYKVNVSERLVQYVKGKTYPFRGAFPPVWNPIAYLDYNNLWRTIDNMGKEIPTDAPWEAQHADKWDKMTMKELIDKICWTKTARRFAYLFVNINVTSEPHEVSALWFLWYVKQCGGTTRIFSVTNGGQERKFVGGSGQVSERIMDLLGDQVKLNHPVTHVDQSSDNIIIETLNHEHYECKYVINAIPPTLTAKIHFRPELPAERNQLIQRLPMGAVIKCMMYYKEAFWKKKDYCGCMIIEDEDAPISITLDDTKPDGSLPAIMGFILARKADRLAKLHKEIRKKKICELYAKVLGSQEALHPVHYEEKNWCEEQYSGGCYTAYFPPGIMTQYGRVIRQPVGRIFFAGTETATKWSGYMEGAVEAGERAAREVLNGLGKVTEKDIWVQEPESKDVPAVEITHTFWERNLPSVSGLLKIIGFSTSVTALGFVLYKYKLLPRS
# [4] = target: T1, Amine oxidase [flavin-containing] B; assay: Binding affinity to MAO-B in human brain hippocampus region at 4 MBq/200 ml after 90 mins by autoradiography analysis; type: tissue-based; conditions: 1.5 h
# [5] = target: T1, Amine oxidase [flavin-containing] B; assay: Binding affinity to MAO-B in human brain putamen region at 4 MBq/200 ml after 90 mins by autoradiography analysis; conditions: 1.5 h
# [6] = target: T1, Amine oxidase [flavin-containing] B; assay: Binding affinity to MAO-B in human brain caudate nucleus region at 4 MBq/200 ml after 90 mins by autoradiography analysis; conditions: 1.5 h
# [7] = target: T1, Amine oxidase [flavin-containing] B; assay: Binding affinity to MAO-B in human brain external globus pallidus region at 4 MBq/200 ml after 90 mins by autoradiography analysis; type: tissue-based; conditions: 1.5 h
# [8] = target: T1, Amine oxidase [flavin-containing] B; assay: Binding affinity to MAO-B in human brain thalamus region at 4 MBq/200 ml after 90 mins by autoradiography analysis; type: tissue-based; conditions: 1.5 h
# [9] = target: T1, Amine oxidase [flavin-containing] B; assay: Binding affinity to MAO-B in human brain at 4 MBq/200 ml after 90 mins by autoradiography analysis in presence of 10 uM L-deprenyl; conditions: 1.5 h
# [10] = target: T1, Amine oxidase [flavin-containing] B; assay: Binding affinity to MAO-B in human brain at 4 MBq/200 ml after 90 mins by autoradiography analysis in presence of 10 uM rasagiline; conditions: 1.5 h
# [11] = target: T1, Amine oxidase [flavin-containing] B; assay: Binding affinity to MAO-B in human brain at 4 MBq/200 ml after 90 mins by autoradiography analysis in presence of 10 uM pirlindole; conditions: 1.5 h
# Brain [12] = assay: Drug uptake in cynomolgus monkey brain at 163 MBq, iv after 4 mins; type: ADME, organism-based, Macaca fascicularis; conditions: in vivo
# [13] = Drug uptake in cynomolgus monkey striatum at 163 MBq, iv measured up to 120 mins; type: ADME, organism-based, Macaca fascicularis; conditions: in vivo, 2 h
# Thalamus = assay: Drug uptake in cynomolgus monkey thalamus at 163 MBq, iv measured up to 120 mins; type: ADME, organism-based, Macaca fascicularis; conditions: in vivo, 2 h
# [14] = Drug uptake in cynomolgus monkey cerebellum at 163 MBq, iv measured up to 120 mins; type: ADME, organism-based, Macaca fascicularis; conditions: in vivo, 2 h
# [15] = Drug uptake in cynomolgus monkey cortex at 163 MBq, iv measured up to 120 mins; type: ADME, organism-based, Macaca fascicularis; conditions: in vivo, 2 h
# Brain [16] = assay: Drug uptake in cynomolgus monkey brain at 163 MBq, iv measured after wash out; type: ADME, organism-based, Macaca fascicularis; conditions: in vivo
# Plasma [17] = assay: Drug metabolism in cynomolgus monkey plasma assessed as [18F]a metabolite retention time at 163 Mbq, iv measured by HPLC analysis; type: ADME, organism-based, Macaca fascicularis; conditions: in vivo
# Plasma [18] = assay: Drug metabolism in cynomolgus monkey plasma assessed as [18F]b metabolite retention time at 163 Mbq, iv measured by HPLC analysis; type: ADME, organism-based, Macaca fascicularis; conditions: in vivo
# Plasma [19] = assay: Drug metabolism in cynomolgus monkey plasma assessed as [18F]fluoroaminoindan metabolite retention time at 163 Mbq, iv measured by HPLC analysis; type: ADME, organism-based, Macaca fascicularis; conditions: in vivo
# Plasma [20] = assay: Metabolic stability in cynomolgus monkey plasma assessed as radioactivity remaining at 163 Mbq, iv measured after 45 mins by HPLC analysis; type: ADME, organism-based, Macaca fascicularis; conditions: in vivo, 0.75 h
# Plasma [21] = assay: Metabolic stability in cynomolgus monkey plasma assessed as radioactivity remaining at 163 Mbq, iv measured after 120 mins by HPLC analysis; type: ADME, organism-based, Macaca fascicularis; conditions: in vivo, 2 h
# Plasma [22] = assay: Drug metabolism in cynomolgus monkey plasma assessed as formation of [18F]fluoroaminoindan metabolite at 163 Mbq, iv by HPLC analysis in presence of non-radioactive compound; type: ADME, organism-based, Macaca fascicularis; conditions: in vivo
structure (smiles),measurement,setting,value
C#CCN[C@H]1c2ccccc2C[C@@H]1F,Ratio IC50,Homo sapiens,84
C#CCN[C@H]1c2ccccc2C[C@@H]1[18F] [[18F]FLUORORASAGILINE],remaining at 3 h,[1],> 97%
same,IC50,[2],0.027 µM
same,IC50,[3],2.3 µM
same,Activity,[4],Active
same,Activity,[5],Active
same,Activity,[6],Active
same,Activity,[7],Active
same,Activity,[8],Active
same,Activity,[9],Not Active
same,Activity,[10],Not Active
same,Activity,[11],Active
same,SUV,Brain [12],250%
same,Drug uptake,[13],Active
same,Drug uptake,Thalamus,Active
same,Drug uptake,[14],Not Active
same,Drug uptake,[15],Not Active
same,Drug uptake,Brain [16],Active
same,Time,Plasma [17],2.7 min
same,Time,Plasma [18],9.2 min
same,Time,Plasma [19],4.6 min
same,Stability,Plasma [20],50%
same,Stability,Plasma [21],20%
same,Drug metabolism,Plasma [22],Active

# From ChEMBL document CHEMBL2021868, “Synthesis and evaluation of [¹⁸F]fluororasagiline, a novel positron emission tomography (PET) radioligand for monoamine oxidase B (MAO-B)” (Bioorg Med Chem, 2012)
